Measurements reported in article PMC4448987, “A neuroligin-1-derived peptide stimulates phosphorylation of the NMDA receptor NR1 subunit and rescues MK-801-induced decrease in long-term potentiation and memory impairment” (Pharmacology Research & Perspectives, 2015).

Tested on: hippocampal slices, CA3-CA1 synapse (fEPSP slope)
Assay: LTP in acute hippocampal slices from mice injected s.c.
Format: in vivo, C57BL/6N mice
Conditions: mice injected with neurolide-1 10 mg/kg s.c. 24 h and 1 h before sacrifice plus MK-801 0.1 mg/kg s.c.; slope 25-30 min after HFS vs before; mean ± SEM, n = 6
Procedure: Juvenile C57BL/6N mice of both sexes (postnatal day 16–24; Taconic, Ejby, Denmark) were injected subcutaneously (s.c.) with 10 mg/kg of the neurolide-1 peptide solution (10 mg/mL) and again 23 h later with 10 mg/kg of the neurolide-1 peptide solution (10 mg/mL) and 0.1 mg/kg MK-801 solution (0.025 mg/mL). Mice receiving the injection with the MK-801 solution only or untreated mice served as control groups. The young mice were rapidly and humanely euthanized with a minimum of distress by decapitation at a time point corresponding to 24 h after first injection. Preceding anesthetic was omitted to preserve the tissue free of drug residues and brain slice functions as unaltered as possible when performing the physiological measurements. After decapitation, the brain was removed. […]
Measurements were made in oxygenated aCSF at room temperature (1.1 mL/min). […] The field potential in the stratum radiatum of the CA1 area of the hippocampus was recorded with an extracellular glass microelectrode (4–6 MΩ, filled with aCSF), positioned at least 500 μm away from the stimulation electrode. […]

Sequence: SEGNRWSNSTKGLFQRA [neurolide-1]
- increase of fEPSP slope after high-frequency stimulation (LTP): 57 ± 12%
